Measured values from patent publication US6140354A, “N-substituted aminotetralins as ligands for the neuropeptide Y Y5 receptor useful in the treatment of obesity and other disorders” (Ortho-McNeil Pharmaceutical, Inc., priority 1999, dated 2000).

Target: T1, human neuropeptide Y5 receptor (Homo sapiens, UniProt Q15761)
T1 construct: expressed in transfected cells
T1 sequence (Q15761 1-445): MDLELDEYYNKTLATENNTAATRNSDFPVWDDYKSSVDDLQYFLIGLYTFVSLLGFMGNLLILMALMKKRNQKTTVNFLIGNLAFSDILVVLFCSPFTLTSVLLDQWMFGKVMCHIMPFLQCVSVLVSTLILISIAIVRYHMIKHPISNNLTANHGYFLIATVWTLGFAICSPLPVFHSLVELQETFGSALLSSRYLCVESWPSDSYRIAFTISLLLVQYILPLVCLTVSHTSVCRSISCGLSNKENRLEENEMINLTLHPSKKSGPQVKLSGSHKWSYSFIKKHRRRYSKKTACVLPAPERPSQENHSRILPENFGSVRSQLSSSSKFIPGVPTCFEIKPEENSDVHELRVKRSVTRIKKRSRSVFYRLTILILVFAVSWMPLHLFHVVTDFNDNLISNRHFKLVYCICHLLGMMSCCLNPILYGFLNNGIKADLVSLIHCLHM
Test: NPY5 HTS Centrifugation Assay: competition with 125I-PYY for binding to NPY5-transfected HEK293 cell membranes
Settings: 80 pM 125I-PYY, 1 hr room temperature, read-out: % Inh @ 3 uM (% Inhibition of ^125 I-PYY Binding)
Method: The compounds described in this invention were evaluated for binding to the human neuropeptide Y5 receptor.
The human NPY5 receptor cDNA (Genbank Accession number U66275) was inserted into the vector pClneo (Invitrogen) and transfected into human embryonic kidney cells (HEK-293) via Calcium phosphate method (Cullen 1987). Stably transfected cells were selected with G-418 (600 ug/mL). Stably transfected cells served as the source for the membranes for the NPY5 receptor binding assay.
NPY5-transfected HEK293 cells were grown to confluence in 150 cm^2 culture dishes. Cells were washed once with phosphate-buffered saline (Gibco Cat#14040-133). Cells were then incubated in phosphate-buffered saline without Calcium and without Magnesium, supplemented with 2 mM EDTA. Cells were incubated for 10 minutes at room temperature and the cells were collected by repetitive pipeting. Cells were formed into pellets and then frozen at -80 until needed. Frozen pellets were homogenized with a polytron at full speed for 12 seconds in a homogenization buffer (20 mM Tris HCl, 5 mM EDTA, pH 7.4). Homogenates were centrifuged for 5 minutes at 4C at 200 g. Supernatants were transferred to corex tubes and centrifuged for 25 minutes at 28,000 g. Pellets were re-suspended in Binding (20 mM HEPES, 10 mM NaCl, 0.22 mM KH2 PO4, 1.3 mM CaCl2, 0.8 mM MgSO4, pH 7.4). Membranes were kept on ice until use.
A competition binding assay, known to those skilled in the art, was used in which aminotetralins (I) compete with ^125 I-PYY for binding to cell membranes. In simple terms, the less ^125 I-PYY bound to the membranes implies that a compound is a good inhibitor (competitor). Bound ^125 I-PYY is determined by centrifugation of membranes, aspirating supernatant, washing away residual ^125 I-PYY and subsequently counting the bound sample in a g-counter.
Compounds to be tested were prepared as 10× stocks in binding buffer and added first to assay tubes (RIA vials, Sarstedt). Twenty (20) μL of each 10× compound stock is pipeted into vials and 80 μL of ^125 I-PYY (NEN catalog number NEX240), which has been diluted to a concentration of 200 pM in 0.25% BSA in binding buffer, is added to the compound tubes (final concentration of ^125 I-PYY is 80 pM). To each tube is added 100 μL of membranes and the mixture is agitated by pipeting 2 times. Samples are incubated for 1 hr at room temperature. Aluminum cast plates (Sarstedt) containing the vials are then centrifuged 10 minutes at 3200 rpm in a Sorvall RT6000. Supernatant is then aspirated. To each vial 400 μL PBS is added and this is then aspirated again. Vials are then put in carrier polypropylene 12×75 tube and counted in gamma counter (Packard). Non-specific binding is determined in the presence of 300 nM NPY. Percent inhibition of ^125 I-PYY binding is calculated by subtracting non-specific binding from the test samples (compound (I)), taking these counts and dividing by total binding, and multiplying by 100. Inhibitory concentration values (IC50) of compounds that show appreciable inhibition of ^125 I-PYY binding are calculated by obtaining percent inhibition of ^125 I-PYY binding values at different concentrations of the test compound, and using a graphing program such as GraphPad Prism (San Diego, Calif.) to calculate the concentration of test compound that inhibits fifty-percent of ^125 I-PYY binding (Table 4). These operations are known to those skilled in the art.

SMILES	inhibition at 3 µM [%]
COc1ccc2c(c1)CCC(NC[C@H]1CC[C@H](CNS(=O)(=O)c3cccc(Br)c3)CC1)C2Cc1ccccc1 (stereo partly drawn) [Compound 69]	93
COc1ccc2c(c1)C(Cc1ccccc1)C(NC[C@H]1CC[C@H](CNS(=O)(=O)c3ccc4ccccc4c3)CC1)CC2 (relative stereo) [Compound 80]	75
O=[N+]([O-])c1ccccc1S(=O)(=O)NC[C@H]1CC[C@H](CNC2CCc3cc(F)ccc3C2Cc2ccccc2)CC1 (relative stereo) [Compound 72]	106
COc1ccc2c(c1)CC[C@H](NC[C@H]1CC[C@H](CNS(=O)(=O)c3ccc4ccccc4c3)CC1)[C@@H]2Cc1ccccc1 (relative stereo) [Compound 10, rac-[1α,2α(trans)]-N-[[[[[1,2,3,4-tetrahydro-6-methoxy-1-(phenylmethyl)-2-naphthalenyl]amino]methyl]-4-cyclohexyl]methyl]2-naphthalenesulfonamide]	96
O=S(=O)(NC[C@H]1CC[C@H](CNC2CCc3cc(O)ccc3C2Cc2ccccc2)CC1)c1ccccc1 (stereo partly drawn) [Compound 71]	102
COc1ccc2c(c1)CCC(NC[C@H]1CC[C@H](CNS(=O)(=O)c3ccccc3)CC1)C2Cc1ccccc1OC (relative stereo) [Compound 85]	74
O=S(=O)(NC[C@H]1CC[C@H](CNC2CCc3c(Cl)cccc3C2Cc2ccccc2)CC1)c1ccccc1 (relative stereo) [Compound 105]	98
COc1ccc2c(c1)CC[C@H](NC[C@H]1CC[C@H](CNS(=O)(=O)c3ccccc3[N+](=O)[O-])CC1)[C@@H]2Cc1ccccc1 (relative stereo) [Compound 54]	94
O=S(=O)(NC[C@H]1CC[C@H](CNC2CCc3cc(O)c(O)cc3C2Cc2ccccc2)CC1)c1ccccc1 (relative stereo) [Compound 109]	101
COc1ccc2c(c1)C(Cc1ccccc1)C(NC[C@H]1CC[C@H](CNS(=O)(=O)c3ccccc3)CC1)CC2 (stereo partly drawn) [Compound 79]	93
COc1ccc2c(c1)CCC(NC[C@H]1CC[C@H](CNS(=O)(=O)c3ccccc3)CC1)C2Cc1ccc(Cl)cc1 (relative stereo) [Compound 97]	90
O=S(=O)(NCCCCNC1CCc2ccccc2C1Cc1ccccc1)c1ccc2ccccc2c1 (stereo not drawn) [Compound 45]	58
COc1ccc2c(c1)CC[C@H](NCCCCCNS(=O)(=O)c1ccc3ccccc3c1)[C@@H]2Cc1ccccc1 (relative stereo) [Compound 11, rac-[1α,2α(trans)]-N-[[[[[1,2,3,4-tetrahydro-6-methoxy-1-(phenylmethyl)-2-naphthalenyl]amino]-5-pentyl]2-naphthalenesulfonamide]	95
O=S(=O)(NC[C@H]1CC[C@H](CNC2CCc3cc(F)ccc3C2Cc2ccccc2)CC1)c1ccccc1Br (relative stereo) [Compound 74]	105
O=S(=O)(NC[C@H]1CC[C@H](CNC2CCc3cccc(Cl)c3C2Cc2ccccc2)CC1)c1ccccc1 (relative stereo) [Compound 106]	104
COc1ccc2c(c1)CCC(NC[C@H]1CC[C@H](CNS(=O)(=O)c3ccccc3)CC1)C2Cc1ccc(C(F)(F)F)cc1 (stereo partly drawn) [Compound 100]	93
COc1cccc(CC2c3ccc(OC)cc3CCC2NC[C@H]2CC[C@H](CNS(=O)(=O)c3ccc4ccccc4c3)CC2)c1 (stereo partly drawn) [Compound 84]	82
COc1ccc2c(c1)CC[C@H](NC[C@H]1CC[C@H](CNS(=O)(=O)c3ccc4ccccc4c3)CC1)[C@@H]2c1ccccc1 (relative stereo) [Compound 34, [1α,2α(trans)]-N-[[[[[1,2,3,4-tetrahydro-6-methoxy-1-phenyl-2-naphthalenyl]amino]methyl]-4-cyclohexyl]methyl]2-naphthlenesulfonamide]	46

SMILES	inhibition at 3 µM [%]
COc1ccc2c(c1)CCC(NC[C@H]1CC[C@H](CNS(=O)(=O)c3ccc(Cl)cc3Cl)CC1)C2Cc1ccccc1 (stereo partly drawn) [Compound 61]	94
COc1ccc2c(c1)CCC(NC[C@H]1CC[C@H](CNS(=O)(=O)c3ccccc3F)CC1)C2Cc1ccccc1 (relative stereo) [Compound 57]	98
COc1ccc2c(c1)CCC(NC[C@H]1CC[C@H](CNS(=O)(=O)c3ccccc3Cl)CC1)C2Cc1ccccc1 (relative stereo) [Compound 66]	99
O=S(=O)(NC[C@H]1CC[C@H](CNC2CCc3cc(F)ccc3C2Cc2ccccc2)CC1)c1ccccc1 (relative stereo) [Compound 103]	98
COc1ccc2c(c1)CCC(NC[C@H]1CC[C@H](CNS(=O)(=O)c3ccccc3)CC1)C2Cc1ccc([N+](=O)[O-])cc1 (stereo partly drawn) [Compound 87]	84
COc1ccc2c(c1)CCC(NC[C@H]1CC[C@H](CNS(=O)(=O)c3cccc([N+](=O)[O-])c3)CC1)C2Cc1ccccc1 (stereo partly drawn) [Compound 62]	95
COc1ccc2c(c1)CCC(NCCCCCCCCNS(=O)(=O)c1ccc3ccccc3c1)C2Cc1ccccc1 (stereo not drawn) [Compound 48]	68
O=S(=O)(NC[C@H]1CC[C@H](CNC2CCc3cc(F)ccc3C2Cc2ccccc2)CC1)c1ccc(Cl)c(Cl)c1 (stereo partly drawn) [Compound 78]	92
COc1ccc2c(c1)CCC(NC[C@H]1CC[C@H](CNS(=O)(=O)c3ccc(S(C)(=O)=O)cc3)CC1)C2Cc1ccccc1 (relative stereo) [Compound 55]	90
COc1ccc2c(c1)CCC(NC[C@H]1CC[C@H](CNS(=O)(=O)c3ccc(Br)cc3)CC1)C2Cc1ccccc1 (stereo partly drawn) [Compound 70]	95
COc1cccc(CC2c3ccc(OC)cc3CCC2NC[C@H]2CC[C@H](CNS(=O)(=O)c3ccccc3)CC2)c1 (relative stereo) [Compound 83]	92
COc1ccc2c(c1)CCC(NC[C@H]1CC[C@H](CNS(=O)(=O)c3ccc([N+](=O)[O-])cc3)CC1)C2Cc1ccccc1 (stereo partly drawn) [Compound 63]	93
COc1ccc2c(c1)CCC(NC[C@H]1CC[C@H](CNS(=O)(=O)c3ccccc3)CC1)C2Cc1ccccc1C(F)(F)F (stereo partly drawn) [Compound 98]	30
COc1ccc2c(c1)CCC(NC[C@H]1CC[C@H](CNS(=O)(=O)c3ccccc3[N+](=O)[O-])CC1)C2Cc1ccccc1OC (stereo partly drawn) [Compound 91]	92
COc1ccc2c(c1)CCC(NC[C@H]1CC[C@H](CNS(=O)(=O)c3ccccc3CN)CC1)C2Cc1ccccc1 (stereo partly drawn) [Compound 67]	91
COc1ccc2c(c1)CCC(NC[C@H]1CC[C@H](CNS(=O)(=O)c3ccccc3)CC1)C2Cc1c(F)cccc1F (relative stereo) [Compound 89]	98
COc1ccc2c(c1)CCC(NC[C@H]1CC[C@H](CNS(=O)(=O)c3ccccc3)CC1)C2Cc1ccccc1Cl (relative stereo) [Compound 95]	84
O=S(=O)(NC[C@H]1CC[C@H](CN[C@H]2CCc3cc(F)ccc3[C@H]2Cc2ccccc2)CC1)c1ccccc1F (relative stereo) [Compound 26, rac-[1α,2α(trans)]-N-[[[[[1,2,3,4-tetrahydro-6-fluoro-1-(3-phenylmethyl)-2-naphthalenyl]amino]methyl]-4-cyclohexyl]methyl]2-fluorobenzenesulfonamide]	107
